Test results as given in PMC6805442, “Discovery of low-molecular weight anti-PD-L1 peptides for cancer immunotherapy” (Journal for Immunotherapy of Cancer, 2019).
Where two headings read alike, the source gives them in different places. No end group written: not given here.

How the values were obtained:
[1] = molecular target: T1, human PD-1/PD-L1 interaction (hPD-L1 protein) (Homo sapiens, UniProt Q9NZQ7); experiment: Blockade of the human PD-1/PD-L1 interaction, plate coated with human PD-L1 protein; assay type: biochemical; conditions: for Block Efficiency: hPD-L1 protein, blocking profile (Fig. 2d, e)
T1 construct: G&P Biosciences, human PD-L1 ECD, cat# FCL0784B; purchased G&P Biosciences FCL0784B (PD-L1)
T1 sequence (Q9NZQ7 19-238 limits assumed): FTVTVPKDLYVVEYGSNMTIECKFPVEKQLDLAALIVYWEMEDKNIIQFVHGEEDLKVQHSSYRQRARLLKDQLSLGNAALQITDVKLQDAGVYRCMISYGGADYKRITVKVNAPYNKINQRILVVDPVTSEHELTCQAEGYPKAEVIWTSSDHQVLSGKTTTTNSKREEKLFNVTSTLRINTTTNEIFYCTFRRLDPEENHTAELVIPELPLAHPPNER
Experimental: (§1) Ninety-six-well plates were coated with 100 ng of PD-L1 protein (G&P Biosciences, human PD-L1 ECD, cat# FCL0784B. mouse PD-L1, cat# FCL3502B) and later blocked with 2% BSA for 2 h at room temperature. Various concentrations of peptides were loaded into the wells and incubated for 1 h at room temperature. […] Streptavidin-HRP (R&D systems) and chromogenic substrate were added into the wells. OD450 was then recorded and referenced to OD540.
(§2) We next examined the blocking efficiency of the anti-PD-L1 peptides at 10 μM (Fig. 2c). […] We also determined IC50 of each peptide using recombinant human PD-L1 protein and DU-145 cancer cells.

[2] = molecular target: T2, PD-1/PD-L1 interaction on DU-145 cells (Homo sapiens, UniProt Q9NZQ7); experiment: Blockade of the PD-1/PD-L1 interaction, plate coated with DU-145 cells; assay type: cell-based; conditions: for Block Efficiency: DU145 cancer cells, blocking profile (Fig. 2d, f)
T2 construct: when the plate was coated with DU-145 cells; endogenous in cells; host or cells: DU-145
T2 sequence (Q9NZQ7 19-290): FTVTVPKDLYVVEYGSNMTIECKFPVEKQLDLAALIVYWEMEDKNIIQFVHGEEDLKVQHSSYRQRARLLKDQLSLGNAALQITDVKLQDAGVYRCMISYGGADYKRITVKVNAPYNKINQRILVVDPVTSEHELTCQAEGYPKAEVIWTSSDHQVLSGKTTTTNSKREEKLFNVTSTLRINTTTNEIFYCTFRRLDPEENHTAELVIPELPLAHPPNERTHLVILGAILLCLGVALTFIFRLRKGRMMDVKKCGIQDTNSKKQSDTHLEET
Experimental: as §1, §2

[3] = molecular target: T3, recombinant human PD-L1 ECD protein (Homo sapiens, UniProt Q9NZQ7); experiment: SPR binding to human PD-L1; conditions: for kon: read-out: Ka
T3 construct: the recombinant human PD-L1 ECD protein were evaluated using SPR; purchased G&P Biosciences FCL0784B
T3 sequence (Q9NZQ7 19-238 limits assumed): as the sequence (Q9NZQ7 19-238 limits assumed) above
Experimental: Binding affinities of the PD-L1 specific peptides for human PD-L1 protein were determined by SPR (BI4500, Biosensing Instrument). PD-L1 protein was diluted to 10 μg/mL with sodium acetate buffer (pH 5.0, GE Healthcare, PA) and covalently coated onto a CM5 sensor chip (CM Dextran Sensor Chip, Biosensing Instrument) using the standard Amine Coupling Kit (GE Healthcare, PA). Approximately 6500 RU of PD-L1 protein were immobilized onto the chip. A second channel was used as a reference. HBS-EP+ buffer (GE Healthcare) was employed at a flow rate of 60 μL/min. A series of concentrations of each peptide (15, 30, 60, 125, 250, 500, 1000, 5000 and 10,000 nM) were prepared in HBS-EP+ running buffer to obtain the equilibrium dissociation constant (KD) values of the peptides. The CM5 sensor chip was regenerated with 10 mM NaOH for 20 s. The results were analyzed using the software of Bi data analysis software.
Binding affinities of the discovered peptides against the recombinant human PD-L1 ECD protein were evaluated using SPR. The PD-L1 protein was immobilized on a CM5 golden chip by the direct amine coupling method. […] Even though the binding affinity of peptides are generally lower than that of antibodies, the very high affinity of antibodies may result in on-target, off-tumor toxicity in healthy tissues that express low levels of PD-L1. In a recent study, scientists constructed several chimeric antigen receptor (CAR) T cells with different affinities to ICAM-1. […] CAR-T cells with nanomolar affinity lyse healthy cells that express a low level of ICAM-1. By contrast, CAR-T cells with micromolar affinity only attack tumor cells with high levels of ICAM-1 but not healthy cells with low levels of ICAM-1, leading to less toxicity.

[4] = molecular target: T4, PD-1/PD-L1 interaction on mouse cancer cell line 4 T1 (Mus musculus, UniProt Q9EP73); experiment: Blockade of the PD-1/PD-L1 interaction on 4T1 cells; assay type: cell-based; conditions: for Block Efficiency: blocking profile (Fig. 2h, j)
T4 construct: endogenous in cells; host or cells: 4T1
T4 sequence (Q9EP73 19-290): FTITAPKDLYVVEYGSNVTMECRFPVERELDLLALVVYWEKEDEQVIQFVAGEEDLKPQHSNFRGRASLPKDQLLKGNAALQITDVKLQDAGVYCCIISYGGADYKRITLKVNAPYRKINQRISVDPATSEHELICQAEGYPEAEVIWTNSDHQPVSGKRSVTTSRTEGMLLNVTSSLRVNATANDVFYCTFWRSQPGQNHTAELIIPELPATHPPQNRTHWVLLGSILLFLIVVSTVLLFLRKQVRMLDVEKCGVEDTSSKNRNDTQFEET

[5] = molecular target: human PD-L1/CD80 interaction (Homo sapiens, UniProt Q9NZQ7); experiment: Blockade of the CD80/PD-L1 interaction; assay type: biochemical; conditions: for blocking efficiency, CD80/PD-L1: 10 μM
Chain of human PD-L1/CD80 interaction (Q9NZQ7 19-238 limits assumed): as the sequence (Q9NZQ7 19-238 limits assumed) above
Excerpt: The CD80/PD-L1 interaction specifically restrains T cell activation, and blockade of the interaction could enhance the anti-tumor activity of the T cells. […] We, therefore, investigated whether the anti-PD-L1 peptides block the CD80/PD-L1 interaction.
Supplementary file 40425_2019_705_MOESM1_ESM.png: Additional file 1: Figure S1. Blockade of the PD-L1/CD80 interaction by anti-PD-L1 peptides and antibody. […] IC50 and blocking efficiency of CLP002 (b) and CLP003 (c) against the human PD-L1/CD80 interaction. Results are represented as the mean ± SD (n = 3).

[6] = molecular target: T5, mouse PD-1/PD-L1 interaction (mPD-L1 protein) (Mus musculus, UniProt Q9EP73); experiment: Blockade of the mouse PD-1/PD-L1 interaction, mouse PD-L1 protein; assay type: biochemical; conditions: for Block Efficiency: mPD-L1 protein, blocking profile (Fig. 2h, i)
T5 construct: purchased G&P Biosciences FCL3502B (PD-L1)
T5 sequence (Q9EP73 19-239 limits assumed): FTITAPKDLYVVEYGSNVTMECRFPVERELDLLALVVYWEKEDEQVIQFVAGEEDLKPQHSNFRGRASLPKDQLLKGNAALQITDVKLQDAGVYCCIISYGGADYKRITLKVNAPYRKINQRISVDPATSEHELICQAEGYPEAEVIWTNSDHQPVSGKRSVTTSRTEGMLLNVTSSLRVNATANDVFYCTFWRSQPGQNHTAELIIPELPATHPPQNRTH
Experimental: as §1
By contrast, the blocking efficiency of the anti-mouse PD-L1 antibody was 92%.

Sequence	IC50 [1]	Block Efficiency [1]	IC50 [2]	Block Efficiency [2]	Kd ([3]; SPR, human PD-L1 immobilized on CM5 chip (~6500 RU), HBS-EP+, 60 μL/min, peptide 15-10,000 nM, mean ± SD (n = 3))	kon [3]	IC50 [4]	Block Efficiency ([4]; 4T1 cancer cells)	IC50 [5]	blocking efficiency, CD80/PD-L1 [5]	IC50 [6]	blocking efficiency ([6]; 10 μM, mouse PD-L1 protein (Fig. 2g))	Block Efficiency [6]	IC50 ([4]; 4T1 cancer cells)	IC50 ([2]; DU145 cancer cells coated on the plate)
WHRSYYTWNLNT [CLP002]	2.17 µM	85%	1.43 µM	80%	0.366 µM	4520 ± 666 M⁻¹ s⁻¹	2.44 µM	61%	2.45 µM	~48%	1.91 µM	71%	68%	–	–
HYPFRPHANQAS [CLP001]	–	0%	–	0%	–	5190 ± 212 M⁻¹ s⁻¹	–	35%	–	approximately 17%	–	–	34%	0.91 µM	–
DYHDPSLPTLRK [CLP004]	–	52%	–	60%	–	5140 ± 390 M⁻¹ s⁻¹	–	34%	–	~27%	–	–	48%	0.73 µM	0.2 µM
WHFSYNWRWLPP [CLP003]	–	–	–	–	–	22600 M⁻¹ s⁻¹	–	–	–	–	–	–	–	–	–
